Values quoted from earlier work as cited in patent US20240173373A1, “NOVEL METHOD FOR THE PRODUCTION OF CONCENTRATED ALOE VERA COMPOSITIONS AND THERAPEUTIC USES FOR THE SAME” (Desert Harvest, Inc., priority 2021, published 2024).

Test system: scald hyperalgesia
Details: compared with phenylbutazone

O-acetylated-D-mannan [O-acetylated-D-mannan (T-2-HN)]
inhibitory effect on scald hyperalgesia: more marked inhibitory effect on scald hyperalgesia than phenylbutazone
